Assays:
[1] = Diluted plasma protein binding in Homo sapiens (human) by ultrafiltration-HPLC-UV/DAD method; format: ADME, cell-free; details: read-out: PPB (converted)
Albumin [2] = target: T1, Albumin (Homo sapiens, UniProt P02768); experiment: Binding affinity to 0.6 mM Homo sapiens (human) serum albumin by ultrafiltration-HPLC-UV/DAD method; format: ADME
[3] = (§1) Total plasma protein binding in Homo sapiens (human) by ultrafiltration-HPLC-UV/DAD method; format: ADME, cell-free; details: read-out: PPB (converted)
Rattus norvegicus [4] = species on record: Rattus norvegicus; experiment: Binding affinity to Rattus norvegicus Wistar (rat) pancreatic membrane protein by ultrafiltration-HPLC-UV/DAD method
[5] = (§2) Total plasma protein binding in Rattus norvegicus Wistar (rat) by ultrafiltration-HPLC-UV/DAD method; format: ADME, cell-free; details: Wistar, read-out: PPB (converted)
[6] = Diluted plasma protein binding in Rattus norvegicus Wistar (rat) by ultrafiltration-HPLC-UV/DAD method; format: ADME, cell-free; details: read-out: PPB (converted)
Albumin [7] = target: T1, Albumin; experiment: Binding affinity to 0.06 mM Homo sapiens (human) serum albumin by ultrafiltration-HPLC-UV/DAD method; format: ADME
Lipid bilayer = experiment: Binding affinity to Rattus norvegicus Wistar (rat) pancreatic phospholipid membrane by ultrafiltration-HPLC-UV/DAD method
Plasma [8] = experiment: as §1; format: ADME, cell-free
Plasma [9] = experiment: as §2; format: ADME, cell-free
Rattus norvegicus [10] = species on record: Rattus norvegicus; experiment: Selectivity ratio of binding affinity to Rattus norvegicus Wistar (rat) pancreatic membrane protein to Rattus norvegicus Wistar (rat) pancreatic phospholipid membrane

T1 sequence (P02768 whole entry): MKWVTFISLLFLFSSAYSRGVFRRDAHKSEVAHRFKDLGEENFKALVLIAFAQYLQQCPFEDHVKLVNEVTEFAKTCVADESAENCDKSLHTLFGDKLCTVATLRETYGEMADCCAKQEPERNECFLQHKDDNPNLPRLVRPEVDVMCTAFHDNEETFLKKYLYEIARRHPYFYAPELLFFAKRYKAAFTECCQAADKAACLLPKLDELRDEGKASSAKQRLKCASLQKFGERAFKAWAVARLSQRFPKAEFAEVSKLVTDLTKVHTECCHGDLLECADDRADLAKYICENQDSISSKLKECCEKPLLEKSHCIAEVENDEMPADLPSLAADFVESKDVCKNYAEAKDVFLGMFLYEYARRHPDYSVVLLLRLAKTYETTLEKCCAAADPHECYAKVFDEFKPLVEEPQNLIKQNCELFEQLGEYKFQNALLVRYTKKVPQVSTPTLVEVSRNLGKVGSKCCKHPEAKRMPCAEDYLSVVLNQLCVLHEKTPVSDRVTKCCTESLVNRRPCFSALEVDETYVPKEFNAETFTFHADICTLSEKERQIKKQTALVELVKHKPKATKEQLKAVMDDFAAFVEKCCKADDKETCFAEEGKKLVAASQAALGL

Q: For `Oc1cc(O)c2c(c1)O[C@@H](c1ccc(O)c(O)c1)[C@H](O)C2` [(-)-CATECHIN], which fraction unbound [1] is on record?
A: 0.55

Q: What about the Activity (Albumin [2]) of the same compound?
A: 65.6%

Q: What about the fraction unbound [3] of the same compound?
A: 0.15

Q: What about the Activity (Rattus norvegicus [4]) of the same compound?
A: 36.9%

Q: And the fraction unbound [5]?
A: 0.15

Q: And the fraction unbound [6]?
A: 0.55

Q: And the Activity (Albumin [7])?
A: 30.9%

Q: For `O=C(O[C@@H]1Cc2c(O)cc(O)cc2O[C@@H]1c1cc(O)c(O)c(O)c1)c1cc(O)c(O)c(O)c1` [EPIGALOCATECHIN GALLATE], which Activity (Albumin [2]) is on record?
A: 85.2%

Q: What about the Activity (Lipid bilayer) of the same compound?
A: 78.8%

Q: What about the fraction unbound [3] of the same compound?
A: 0.15

Q: What about the Activity (Rattus norvegicus [4]) of the same compound?
A: 37.4%

Q: And the fraction unbound [5]?
A: 0.15

Q: And the Activity (Albumin [7])?
A: 68.7%

Q: Which Activity (Albumin [2]) does the source give for `Cn1c(=O)c2c(ncn2C)n(C)c1=O` [CAFFEINE] here?
A: 72.7%

Q: What about the Activity (Lipid bilayer) of the same compound?
A: 62.8%

Q: And the PPB (Plasma [8])?
A: 80%

Q: What about the PPB (Plasma [9]) of the same compound?
A: 80%

Q: And the Activity (Albumin [7])?
A: 58.4%

Q: Which Activity (Albumin [2]) does the source give for `O=C(O[C@@H]1Cc2c(O)cc(O)cc2O[C@@H]1c1ccc(O)c(O)c1)c1cc(O)c(O)c(O)c1` [EPICATECHIN GALLATE] here?
A: 85.8%

Q: And the Activity (Lipid bilayer)?
A: 91.5%

Q: And the fraction unbound [3]?
A: 0.15

Q: What about the Activity (Rattus norvegicus [4]) of the same compound?
A: 39.2%

Q: What about the Ratio (Rattus norvegicus [10]) of the same compound?
A: 2

Q: What about the fraction unbound [5] of the same compound?
A: 0.15

Q: And the Activity (Albumin [7])?
A: 69.5%
